Laboratory results from PMC8286599 (Gut Pathogens, 2021).
Where two headings read alike, the source gives them in different places.

Experiments:
[1] = system: MDR-EAEC strains; experiment: MIC and MBC by broth microdilution with resazurin; type: cell-based, enteroaggregative Escherichia coli; conditions: infant diarrhoea isolate
From the text: (§1) The characterised MDR field strains of EAEC (E1; E2; E3), S. Enteritidis (S1; S2; S3), and S. Typhimurium (ST1; ST2; ST3) maintained in the laboratory repository of Meat Safety Laboratory of ICAR-National Research Centre on Meat, Hyderabad re-validated using PCR assays were used to evaluate the in vitro antibacterial efficacy of phytochemicals. E. coli ATCC 25922 was used as the quality control strain.
(§2) The antimicrobial efficacy of identified phytochemicals against multi-drug resistant EAEC and NTS strains was determined by estimating the minimum inhibitory concentration (MIC) and minimum bactericidal concentrations (MBC).
(§3) Subsequent to the incubation period, resazurin dye (0.015 %) was added to all the wells to determine the dye reduction (pink) and thereby the bacterial inhibition.

[2] = system: MDR-S. Enteritidis strains; experiment: MIC and MBC by broth microdilution with resazurin; type: cell-based, Salmonella Enteritidis; conditions: poultry droppings isolate
From the text: as §1, §2, §3

[3] = system: MDR-S. Typhimurium strains; experiment: MIC and MBC by broth microdilution with resazurin; type: cell-based, Salmonella Typhimurium; conditions: poultry droppings isolate
From the text: as §1, §2, §3

[4] = Haemolytic assay; type: cell-based; conditions: read-out: Haemolysis; for hemolysis at 0.5 X MIC: 0.50X MIC
Experimental: The haemolytic assay of the individual phytochemical was performed by measuring the release of haemoglobin from sheep and human ‘O’ erythrocytes at 540 nm. The percentage of haemolysis was calculated as (Asample – APBS)/ (ATriton−X – APBS) ×100, in which Asample is the absorbance of phytochemical treatment, APBS is the absorbance of untreated control with PBS, and ATriton−X is the absorbance of lysed cells treated with Triton X-100 measured at 540 nm.

[5] = system: MDR-EAEC strains; experiment: Stability assay, pH (MIC)
From the text: (§4) To explore the utility of phytochemicals as therapeutic molecules and their stability, individual phytochemicals were exposed to cationic salts, and different pH levels followed by analysing their MIC and MBC values against test strains as described earlier.
(§5) Subsequent to exposure to varied conditions, the antimicrobial activity of the phytochemicals was estimated by determining their MIC and MBC values against all the selected MDR strains of EAEC, S. Enteritidis, and S. Typhimurium as described earlier.

[6] = system: MDR-S. Enteritidis strains; experiment: Stability assay, pH (MIC)
From the text: as §4, §5

[7] = system: MDR-S. Typhimurium strains; experiment: Stability assay, pH (MIC)
From the text: as §4, §5

[8] = system: MDR-EAEC strains; experiment: Stability assay, cationic salts (MIC)
From the text: as §4, §5

[9] = system: MDR-S. Enteritidis strains; experiment: Stability assay, cationic salts (MIC)
From the text: as §4, §5

[10] = system: MDR-S. Typhimurium strains; experiment: Stability assay, cationic salts (MIC)
From the text: as §4, §5

[11] = human 'O' erythrocytes, Human RBCs

Structure (SMILES): Cc1ccc(C(C)C)c(O)c1 [Thymol, thymol]
- MBC ([1]; EAEC (E1)): 0.25 µl/ml
- MIC ([1]; EAEC (E1)): 0.25 µl/ml
- MBC ([1]; EAEC (E2)): 0.50 µl/ml
- MIC ([1]; EAEC (E2)): 0.25 µl/ml
- MBC ([1]; EAEC (E3)): 0.25 µl/ml
- MIC ([1]; EAEC (E3)): 0.25 µl/ml
- MBC ([2]; S. Enteritidis (S1)): 0.50 µl/ml
- MIC ([2]; S. Enteritidis (S1)): 0.12 µl/ml
- MBC ([2]; S. Enteritidis (S2)): 0.50 µl/ml
- MIC ([2]; S. Enteritidis (S2)): 0.25 µl/ml
- MBC ([2]; S. Enteritidis (S3)): 0.50 µl/ml
- MIC ([2]; S. Enteritidis (S3)): 0.25 µl/ml
- MBC ([3]; S. Typhimurium (ST1)): 0.50 µl/ml
- MIC ([3]; S. Typhimurium (ST1)): 0.25 µl/ml
- MBC ([3]; S. Typhimurium (ST2)): 0.50 µl/ml
- MIC ([3]; S. Typhimurium (ST2)): 0.25 µl/ml
- MBC ([3]; S. Typhimurium (ST3)): 0.50 µl/ml
- MIC ([3]; S. Typhimurium (ST3)): 0.06 µl/ml
- hemolysis at 0.25 X MIC [4, 11]: 1.22%
- hemolysis at 0.5 X MIC [4, 11]: 1.91%
- hemolysis at 1 X MIC [4, 11]: 2.86%
- hemolysis at 2 X MIC [4, 11]: 13.5%
- hemolysis at 4 X MIC [4, 11]: 39.4%
- hemolysis at 8 X MIC [4, 11]: 48.5%
- hemolysis at 0.25 X MIC ([4]; sheep erythrocytes, Sheep RBCs): 0%
- hemolysis at 0.5 X MIC ([4]; sheep erythrocytes, Sheep RBCs): 0.22%
- hemolysis at 1 X MIC ([4]; sheep erythrocytes, Sheep RBCs): 1.49%
- hemolysis at 2 X MIC ([4]; sheep erythrocytes, Sheep RBCs): 11.4%
- hemolysis at 4 X MIC ([4]; sheep erythrocytes, Sheep RBCs): 21.6%
- hemolysis at 8 X MIC ([4]; sheep erythrocytes, Sheep RBCs): 47.6%
- MIC at given pH ([5]; pH 4, strain E1): 0.25 µl/ml
- MIC at given pH ([5]; pH 4, strain E2): 0.25 µl/ml
- MIC at given pH ([5]; pH 4, strain E3): 0.25 µl/ml
- MIC at given pH ([5]; pH 6, strain E1): 0.25 µl/ml
- MIC at given pH ([5]; pH 6, strain E2): 0.25 µl/ml
- MIC at given pH ([5]; pH 6, strain E3): 0.25 µl/ml
- MIC at given pH ([5]; pH 8, strain E1): 0.5 µl/ml
- MIC at given pH ([5]; pH 8, strain E2): 0.25 µl/ml
- MIC at given pH ([5]; pH 8, strain E3): 0.5 µl/ml
- MIC at given pH ([6]; pH 4, strain S1): 0.5 µl/ml
- MIC at given pH ([6]; pH 4, strain S2): 0.5 µl/ml
- MIC at given pH ([6]; pH 4, strain S3): 0.5 µl/ml
- MIC at given pH ([6]; pH 6, strain S1): 0.5 µl/ml
- MIC at given pH ([6]; pH 6, strain S2): 0.5 µl/ml
- MIC at given pH ([6]; pH 6, strain S3): 0.5 µl/ml
- MIC at given pH ([6]; pH 8, strain S1): 0.5 µl/ml
- MIC at given pH ([6]; pH 8, strain S2): 1.0 µl/ml
- MIC at given pH ([6]; pH 8, strain S3): 0.5 µl/ml
- MIC at given pH ([7]; pH 4, strain ST1): 0.5 µl/ml
- MIC at given pH ([7]; pH 4, strain ST2): 0.5 µl/ml
- MIC at given pH ([7]; pH 4, strain ST3): 0.5 µl/ml
- MIC at given pH ([7]; pH 6, strain ST1): 0.5 µl/ml
- MIC at given pH ([7]; pH 6, strain ST2): 1.0 µl/ml
- MIC at given pH ([7]; pH 6, strain ST3): 0.5 µl/ml
- MIC at given pH ([7]; pH 8, strain ST1): 0.5 µl/ml
- MIC at given pH ([7]; pH 8, strain ST2): 1.0 µl/ml
- MIC at given pH ([7]; pH 8, strain ST3): 1.0 µl/ml
- MIC with cationic salt ([8]; 2 mM MgCl2, strain E1): 0.25 µl/ml
- MIC with cationic salt ([8]; 2 mM MgCl2, strain E2): 0.25 µl/ml
- MIC with cationic salt ([8]; 2 mM MgCl2, strain E3): 0.25 µl/ml
- Change of MIC values with cationic salts ([8]; 150 mM NaCl and 2 mM MgCl2, MDR-EAEC strains): remained almost similar
- MIC with cationic salt ([8]; 150 mM NaCl, strain E1): 0.25 µl/ml
- MIC with cationic salt ([8]; 150 mM NaCl, strain E2): 0.25 µl/ml
- MIC with cationic salt ([8]; 150 mM NaCl, strain E3): 0.25 µl/ml
- MIC with cationic salt ([9]; 2 mM MgCl2, strain S1): 0.5 µl/ml
- MIC with cationic salt ([9]; 2 mM MgCl2, strain S2): 0.5 µl/ml
- MIC with cationic salt ([9]; 2 mM MgCl2, strain S3): 0.5 µl/ml
- MIC with cationic salt ([9]; 150 mM NaCl, strain S1): 0.5 µl/ml
- MIC with cationic salt ([9]; 150 mM NaCl, strain S2): 0.5 µl/ml
- MIC with cationic salt ([9]; 150 mM NaCl, strain S3): 1.0 µl/ml
- MIC with cationic salt ([10]; 2 mM MgCl2, strain ST1): 0.5 µl/ml
- MIC with cationic salt ([10]; 2 mM MgCl2, strain ST2): 1.0 µl/ml
- MIC with cationic salt ([10]; 2 mM MgCl2, strain ST3): 0.5 µl/ml
- MIC with cationic salt ([10]; 150 mM NaCl, strain ST1): 0.5 µl/ml
- MIC with cationic salt ([10]; 150 mM NaCl, strain ST2): 0.5 µl/ml
- MIC with cationic salt ([10]; 150 mM NaCl, strain ST3): 0.5 µl/ml
